Drawing on patent US20090253669A1, “Substituted Sulfonamide Compounds” (GRUENENTHAL GmbH, priority 2008, published 2009), this text covers inhibition for four molecules.

Broadly, the inhibition is the change of the read-out against control, counted positive when it falls.

The target of experiment [1] is T1, B1R receptor of the rat (rB1R) (Rattus norvegicus, UniProt P97583).
T1 construct: host or cells: CHO K1 cells
T1 sequence (P97583 1-337): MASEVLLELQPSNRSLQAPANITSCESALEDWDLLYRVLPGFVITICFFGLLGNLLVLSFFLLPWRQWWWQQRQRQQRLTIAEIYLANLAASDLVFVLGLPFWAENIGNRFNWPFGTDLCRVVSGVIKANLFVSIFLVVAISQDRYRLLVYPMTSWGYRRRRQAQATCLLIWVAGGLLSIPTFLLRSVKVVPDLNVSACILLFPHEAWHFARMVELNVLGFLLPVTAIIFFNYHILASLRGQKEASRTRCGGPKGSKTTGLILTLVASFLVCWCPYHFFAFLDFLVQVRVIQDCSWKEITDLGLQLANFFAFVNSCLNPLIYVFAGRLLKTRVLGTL
The experiment is described as follows: FLIPR Ca2+ assay on rB1R-transfected CHO K1 cells, antagonistic action. It counts as cell-based. To be noted: CHO-K1, 10 μM test substance; agonist Des-Arg9-bradykinin 100 nM; % of maximum achievable inhibition; read-out: rB1R [10 μM] % inhibition.

The target in experiment [2] is T2, human B1R receptor (hB1R) (Homo sapiens, UniProt P46663).
T2 construct: host or cells: CHO K1 cells
T2 sequence (P46663 1-353): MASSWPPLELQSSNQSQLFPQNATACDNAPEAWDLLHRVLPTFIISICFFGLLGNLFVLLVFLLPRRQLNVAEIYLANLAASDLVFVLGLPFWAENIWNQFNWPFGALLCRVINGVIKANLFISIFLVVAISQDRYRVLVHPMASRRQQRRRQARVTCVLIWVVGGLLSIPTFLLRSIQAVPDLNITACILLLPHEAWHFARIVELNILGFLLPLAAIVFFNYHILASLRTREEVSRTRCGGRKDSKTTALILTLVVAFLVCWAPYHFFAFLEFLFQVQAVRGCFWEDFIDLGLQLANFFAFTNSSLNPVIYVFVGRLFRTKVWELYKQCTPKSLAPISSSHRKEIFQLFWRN
The experiment can be described thus: FLIPR Ca2+ assay on hB1R-transfected CHO K1 cells, antagonistic action. The settings on record: CHO-K1, 10 μM test substance; agonist Lys-Des-Arg9-bradykinin 0.5 nM; % of maximum achievable inhibition; read-out: hB1R [10 μM] % inhibition. It counts as cell-based.

Regarding `COc1cc(C)c(S(=O)(=O)N(C)CCOCC(=O)N(C)CC2CCC(Cc3ccccc3)(N3CCN(C)CC3)CC2)c(C)c1` (centres unmarked) [Compound 183, N-((4-benzyl-4-(4-methylpiperazin-1-yl)cyclohexyl)methyl)-2-(2-(4-methoxy-N,2,6-trimethylphenylsulfonamido)ethoxy)-N-methylacetamide], the inhibition at 10 µM in experiment [1] was 66%; in experiment [2], 102%.
Take `COc1cc(C)c(S(=O)(=O)N(C)CCOCC(=O)N(C)CCC2CCC(c3cccnc3)(N(C)C)CC2)c(C)c1` (centres unmarked) [Compound 207, N-(2-(4-(Dimethylamino)-4-(pyridin-3-yl)cyclohexyl)ethyl)-2-(2-(4-methoxy-N,2,6-trimethylphenylsulfonamido)ethoxy)-N-methylacetamide]: the inhibition at 10 µM worked out at 101% in experiment [1] and 100% in experiment [2].
For the molecule `CN1CCN(C2(CCc3ccccc3)CCC(CN(C)C(=O)COCC3CCCCN3S(=O)(=O)c3c(Cl)cc(Cl)cc3Cl)CC2)CC1` (centres unmarked) [Compound 161, N-methyl-N-((4-(4-methylpiperazin-1-yl)-4-phenethylcyclohexyl)methyl)-2-((1-(2,4,6-trichlorophenylsulfonyl)piperidin-2-yl)methoxy)acetamide], the figures for the inhibition at 10 µM in experiment [1] and in experiment [2] were 98% and 101%, respectively.
As for `COc1cc(C)c(S(=O)(=O)N(C)CCOCC(=O)N2CCC(c3ccccc3)(N(C)C)CC2)c(C)c1` [Compound 54, N-(2-(2-(4-(dimethylamino)-4-phenylpiperidin-1-yl)-2-oxoethoxy)ethyl)-4-methoxy-N,2,6-trimethylbenzenesulfonamide], the inhibition at 10 µM was determined as 100% in experiment [1] and 103% in experiment [2].
